Reference: patent US8247211B2, “Glycopeptide antibiotics” (American Cyanamid Company, priority 2001, dated 2012)
Values after ≈ are worked out from the molar mass of the structure shown.

Experiments:
Test in all cases: In vitro antibacterial evaluation: minimum inhibitory concentration (MIC), broth dilution method
Format in all cases: cell-based
Staphylococcus sp. = conditions: broth dilution, 18 hours at 35° C.
Method in brief: (§1)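 Susceptibility determined by NCCLS-recommended broth dilution (M7-A2), Muller-Hinton II […]. Concentration span 64-0.06 μg/mL, inoculum 5×10^5 CFU/mL. Isolates include strains resistant to methicillin, penicillin and/or vancomycin.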

Enterococcus sp. = test system: Enterococcus sp.
Method in brief: as §1

Streptococcus sp. = test system: Streptococcus sp.
Method in brief: as §1

Escherichia coli = test system: Escherichia coli
Method in brief: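 Broth dilution per NCCLS M7-A2 in Muller-Hinton II […], inoculum 5×10^5 CFU/mL, antibiotic tested over 64-0.06 μg/mL. MIC is taken as the lowest concentration that inhibits growth. Panel includes recent clinical isolates resistant to methicillin, penicillin and/or vancomycin.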

[1] = broth dilution, inoculum 5×10^5 CFU/mL, 18 hours at 35° C.

MIC Coagulase Negative Staphylococcus (GC 4547) (Staphylococcus sp.; 5×10^5 CFU/mL): 2 mg/L (≈ 1.36 µM)
MIC Coagulase Negative Staphylococcus (GC 4548) (Staphylococcus sp.; 5×10^5 CFU/mL): 0.5 mg/L (≈ 0.339 µM)
MIC Coagulase Negative Staphylococcus (GC 4549) (Staphylococcus sp.; 5×10^5 CFU/mL): 0.5 mg/L (≈ 0.339 µM)
MIC Coagulase Negative Staphylococcus (GC 4551) (Staphylococcus sp.; 5×10^5 CFU/mL): 1 mg/L (≈ 0.678 µM)
MIC Staphylococcus aureus (ATCC 29213) (Staphylococcus sp.; 5×10^5 CFU/mL): 1 mg/L (≈ 0.678 µM)
MIC Staphylococcus aureus (GC 1131) (Staphylococcus sp.; 5×10^5 CFU/mL): 1 mg/L (≈ 0.678 µM)
MIC Staphylococcus aureus (GC 3051) (Staphylococcus sp.; 5×10^5 CFU/mL): 1 mg/L (≈ 0.678 µM)
MIC Staphylococcus aureus (GC 3053) (Staphylococcus sp.; 5×10^5 CFU/mL): 1 mg/L (≈ 0.678 µM)
MIC Staphylococcus aureus (GC 4541) (Staphylococcus sp.; 5×10^5 CFU/mL): 1 mg/L (≈ 0.678 µM)
MIC Staphylococcus aureus (GC 4542) (Staphylococcus sp.; 5×10^5 CFU/mL): 1 mg/L (≈ 0.678 µM)
MIC Staphylococcus aureus (GC 4544) (Staphylococcus sp.; 5×10^5 CFU/mL): 2 mg/L (≈ 1.36 µM)
MIC Staphylococcus aureus (GC 4545) (Staphylococcus sp.; 5×10^5 CFU/mL): 1 mg/L (≈ 0.678 µM)
MIC Staphylococcus aureus-SMITH (GC 4543) (Staphylococcus sp.; 5×10^5 CFU/mL): 1 mg/L (≈ 0.678 µM)
MIC Staphylococcus aureus (ATCC 29213) (Staphylococcus sp.; strain ATCC 29213): 1 mg/L (≈ 0.678 µM)
MIC Staphylococcus aureus (GC 1131) (Staphylococcus sp.; strain GC 1131): 1 mg/L (≈ 0.678 µM)
MIC Staphylococcus aureus (GC 3051) (Staphylococcus sp.; strain GC 3051): 1 mg/L (≈ 0.678 µM)
MIC Staphylococcus aureus (GC 3053) (Staphylococcus sp.; strain GC 3053): 1 mg/L (≈ 0.678 µM)
MIC Staphylococcus aureus (GC 4541) (Staphylococcus sp.; strain GC 4541): 1 mg/L (≈ 0.678 µM)
MIC Staphylococcus aureus (GC 4542) (Staphylococcus sp.; strain GC 4542): 1 mg/L (≈ 0.678 µM)
MIC Staphylococcus aureus (GC 4544) (Staphylococcus sp.; strain GC 4544): 2 mg/L (≈ 1.36 µM)
MIC Staphylococcus aureus (GC 4545) (Staphylococcus sp.; strain GC 4545): 1 mg/L (≈ 0.678 µM)
MIC Enterococcus avium (GC 4558) (Enterococcus sp.; [1]): 2 mg/L (≈ 1.36 µM)
MIC Enterococcus faecalis (ATCC 29212) (Enterococcus sp.; [1]): 2 mg/L (≈ 1.36 µM)
MIC Enterococcus faecalis (GC 2242) (Enterococcus sp.; [1]): 2 mg/L (≈ 1.36 µM)
MIC Enterococcus faecalis (GC 2691) (Enterococcus sp.; [1]): 2 mg/L (≈ 1.36 µM)
MIC Enterococcus faecalis (GC 3059) (Enterococcus sp.; [1]): 2 mg/L (≈ 1.36 µM)
MIC Enterococcus faecalis (GC 4552) (Enterococcus sp.; [1]): 2 mg/L (≈ 1.36 µM)
MIC Enterococcus faecalis (GC 4553) (Enterococcus sp.; [1]): 2 mg/L (≈ 1.36 µM)
MIC Enterococcus faecalis (GC 4554) (Enterococcus sp.; [1]): 2 mg/L (≈ 1.36 µM)
MIC Enterococcus faecalis (GC 6189) (Enterococcus sp.; [1]): 2 mg/L (≈ 1.36 µM)
MIC Enterococcus faecium (GC 2243) (Enterococcus sp.; [1]): 2 mg/L (≈ 1.36 µM)
MIC Enterococcus faecium (GC 4556) (Enterococcus sp.; [1]): 2 mg/L (≈ 1.36 µM)
MIC Enterococcus faecium (GC 4557) (Enterococcus sp.; [1]): 1 mg/L (≈ 0.678 µM)
MIC Enterococcus faecalis (ATCC 29212) (Enterococcus sp.; strain ATCC 29212): 2 mg/L (≈ 1.36 µM)
MIC Enterococcus faecalis (GC 2242) (Enterococcus sp.; strain GC 2242): 2 mg/L (≈ 1.36 µM)
MIC Enterococcus faecium (GC 2243) (Enterococcus sp.; strain GC 2243): 2 mg/L (≈ 1.36 µM)
MIC Enterococcus faecalis (GC 2691) (Enterococcus sp.; strain GC 2691): 2 mg/L (≈ 1.36 µM)
MIC Enterococcus faecalis (GC 3059) (Enterococcus sp.; strain GC 3059): 2 mg/L (≈ 1.36 µM)
MIC Enterococcus faecalis (GC 4552) (Enterococcus sp.; strain GC 4552): 2 mg/L (≈ 1.36 µM)
MIC Enterococcus faecalis (GC 4553) (Enterococcus sp.; strain GC 4553): 2 mg/L (≈ 1.36 µM)
MIC Enterococcus faecalis (GC 4554) (Enterococcus sp.; strain GC 4554): 2 mg/L (≈ 1.36 µM)
MIC Enterococcus faecium (GC 4556) (Enterococcus sp.; strain GC 4556): 2 mg/L (≈ 1.36 µM)
MIC Enterococcus faecium (GC 4557) (Enterococcus sp.; strain GC 4557): 1 mg/L (≈ 0.678 µM)
MIC Enterococcus avium (GC 4558) (Enterococcus sp.; strain GC 4558): 2 mg/L (≈ 1.36 µM)
MIC Enterococcus faecalis (GC 6189) (Enterococcus sp.; strain GC 6189): 2 mg/L (≈ 1.36 µM)
MIC Streptococcus agalactiae (GC 4564) (Streptococcus sp.; [1]): <0.12 mg/L
MIC Streptococcus pneumoniae (ATCC 6301) (Streptococcus sp.; [1]): <0.12 mg/L
MIC Streptococcus pneumoniae (GC 1894) (Streptococcus sp.; [1]): <0.12 mg/L
MIC Streptococcus pneumoniae (GC 4565) (Streptococcus sp.; [1]): <0.12 mg/L
MIC Streptococcus pyogenes (GC 4563) (Streptococcus sp.; [1]): 0.5 mg/L (≈ 0.339 µM)
MIC Streptococcus pneumoniae (ATCC 6301) (Streptococcus sp.; strain ATCC 6301): <0.12 mg/L
MIC Streptococcus pneumoniae (GC 1894) (Streptococcus sp.; strain GC 1894): <0.12 mg/L
MIC Streptococcus pyogenes (GC 4563) (Streptococcus sp.; strain GC 4563): 0.5 mg/L (≈ 0.339 µM)
MIC Streptococcus agalactiae (GC 4564) (Streptococcus sp.; strain GC 4564): <0.12 mg/L
MIC Streptococcus pneumoniae (GC 4565) (Streptococcus sp.; strain GC 4565): <0.12 mg/L
MIC Escherichia coli (ATCC 25922) (Escherichia coli; strain ATCC 25922): 64 mg/L (≈ 43.4 µM)
MIC Escherichia coli (GC 4559) (Escherichia coli; strain GC 4559): 16 mg/L (≈ 10.9 µM)
MIC Escherichi coli (GC 4560) (Escherichia coli; strain GC 4560): 0.5 mg/L (≈ 0.339 µM)
SMILES: CSc1ccc(C2OCC3OC(OC4C(CO)OC(Oc5ccc(CC6NC(=O)C(C(C)c7ccccc7)NC(=O)CNC(=O)C(CO)NC(=O)C(C(O)C7CNC(=N)N7C7OC(CO)C(O)C(O)C7O)NC(=O)C(C(O)C7CNC(=N)N7)NC6=O)cc5)C(O)C4O)C(O)C(O)C3O2)cc1[N+](=O)[O-] (stereo not drawn) [Example 168, Cyclo[glycyl-β-methylphenylalanyl-O-[4-O-[4,6-O-[4-(methylthio)-3-nitrobenzylidene]hexopyranosyl]hexopyranosyl]tyrosyl-3-(2-iminoimidazolidin-4-yl)seryl-3-(3-hexopyranosyl-2-iminoimidazolidin-4-yl)serylseryl]]
MIC Staphylococcus haemolyticus (GC 4546) (Staphylococcus sp.; 5×10^5 CFU/mL): 0.5 mg/L (≈ 0.339 µM)
